{"source": "patent US12171856B2", "about": "“Use of salidroside derivative in external preparation for skin whitening” (SHANGHAI CHEERMORE BIOLOGICAL TECHNOLOGY CO., LTD, priority 2019, dated 2024)", "key": {"Human melanocytes": {"tested_on": "Human melanocytes", "experiment": "Inhibition of NGF/UV-induced melanin generation in human melanocytes (absorbance at 490 nm)", "type": "cell-based", "conditions": "60 h", "experimental": "(§1) Human melanocytes and tool melanocytes were used to conduct the experiment in this section. Human melanocytes and tool melanocytes were inoculated in a 96-well plate, with a plating density of 5,000 cells/well. After the cells adhered to a wall, nerve growth factor (NGF) was added to the culture and the culture was irradiated with UV to induce the generation of melanin, which simulated a melanin generation process in vivo. Then β-D-glucoside derivatives to be tested each were added at a final concentration of 100 μM to the cells, and the cells were further cultivated in an incubator at 37° C. and 5% CO2 for 60 h, where 3 replicates were set for each group. The cells were washed with pre-cooled phosphate buffered saline (PBS), then digested with trypsin, and centrifuged, and a resulting supernatant was discarded. The cells were lysed with a NaOH (1 mol/L) solution including 10% dimethyl sulfoxide (DMSO) in a 65° C. water bath to make melanin granules completely dissolved out, and the absorbance at 490 nm was determined with a microplate reader. Finally, the absorbance value was used to reflect a melanin content.\nHuman melanocytes and tool melanocytes were used to conduct the experiment in this section. Human melanocytes and tool melanocytes were inoculated in a 96-well plate, with a plating density of 5,000 cells/well. After the cells adhered to a wall, NGF was added to the culture and the culture was irradiated with UV to induce the generation of melanin, which simulated a melanin generation process in vivo. SP-037 was added to the cells at 6 concentrations of 0 μM, 12.5 μM, 25 μM, 50 μM, 100 μM, and 200 μM, and then the cells were further cultivated in an incubator at 37° C. and 5% CO2 for 60 h, where 5 replicates were set for each group. The cells were washed with pre-cooled PBS, then digested with trypsin, and centrifuged, and a resulting supernatant was discarded. The cells were lysed with a NaOH (1 mol/L) solution including 10% DMSO in a 65° C. water bath to make melanin granules completely dissolved out, and the absorbance at 490 nm was determined with a microplate reader. Finally, the absorbance value was used to reflect a melanin content.\n(§2) Human melanocytes and tool melanocytes were used to conduct the experiment in this section. Human melanocytes and tool melanocytes were inoculated in a 96-well plate, with a plating density of 5,000 cells/well. […] The cells were lysed with a NaOH (1 mol/L) solution including 10% DMSO in a 65° C. water bath to make melanin granules completely dissolved out, and the absorbance at 490 nm was determined with a microplate reader. Finally, the absorbance value was used to reflect a melanin content."}, "tool melanocytes": {"tested_on": "tool melanocytes", "experiment": "Inhibition of NGF/UV-induced melanin generation in tool melanocytes (absorbance at 490 nm)", "type": "cell-based", "conditions": "60 h, FIG. 6", "experimental": "as §1, with “The cells were washed with pre-cooled phosphate buffered saline (PBS), then digested with trypsin, and centrifuged, and a resulting supernatant was discarded.” left out\nas §2, with “section.” for “section. Human melanocytes and tool melanocytes were inoculated in a 96-well plate, with a plating density of 5,000 cells/well.”, “content. […]” for “content.”"}, "Kunming mice": {"tested_on": "Kunming mice", "experiment": "Long-term toxicity test on mouse skin", "type": "in vivo", "experimental": "Kunming mice were used to conduct the experiment in this section. SP-037 was prepared into solutions with concentrations of 2.5% (mass to volume ratio), 5% (mass to volume ratio), and 10% (mass to volume ratio) using NS. A control group, a 2.5% dosage group, a 5% dosage group, and a 10% dosage group were set, separately. One mouse was used for the blank group, and two mice were used for each of the experimental groups. Application on the dorsal skin: the hair on the back of mice was removed by depilatory cream, and a drug was applied at a corresponding concentration on the bare skin every day, which lasted for 3 months. During the test period, pictures were taken and the body weight of mice were recorded regularly, and it was observed whether there were white spots and other skin irritation or poisoning phenomena."}, "[1]": {"tested_on": "arm skin of the volunteers", "experiment": "Human skin irritation test (patch test)", "type": "in vivo", "conditions": "gel with 10% SP-037 in 2% sodium carboxymethyl cellulose", "experimental": "In order to further achieve the use of SP-037 in the field of skin care, it is necessary to ensure the safety of SP-037 first. In the experiment of this section, a gel (2% sodium carboxymethyl cellulose prepared with deionized water) with the main component of 10% SP-037 was prepared, then volunteers were recruited, and a patch test was conducted on the arm skin of the volunteers to evaluate the safety of SP-037."}, "[2]": {"tested_on": "skin at the inner side of the arm of volunteers with dark skin", "experiment": "Skin whitening effect in volunteers (Dermalab skin color probe, melanin and L*a*b values)", "type": "in vivo, human", "experimental": "A total of 33 volunteers with dark skin were recruited, and the 33 volunteers were 22 to 38 years old. The 33 volunteers were randomly divided into 7 groups, including: a blank control group: 3, an SP-037 group: 5; a VC group: 5; a kojic acid group: 5; a thiamidol group: 5; a hydroquinone group: 5; and a 377 group: 5. A blank gel and gels with the main components of SP-037, VC, kojic acid, thiamidol, hydroquinone, and 377 respectively were prepared. An inner side of the left arm of each volunteer in each group was washed and then evenly applied with a corresponding gel every day, which lasted for 4 weeks. The Dermalab instrument was used to determine the characteristics of skin at the inner side of the arm with a skin color test probe on day 0, day 14, and day 28 to obtain melanin and L*a*b values, and according to final statistical data, the whitening effect of each component was analyzed."}}, "data": [{"smiles": "OC[C@H]1O[C@@H](OCCc2cc(O)cc(O)c2)[C@H](O)[C@@H](O)[C@@H]1O", "note": "[SP-037]", "values": [{"measurement": "effect of SP-037 on a melanin content", "setting": "Human melanocytes; 0-200 μM, human melanocytes and tool melanocytes (not separated in text), FIG. 5", "value": "can significantly inhibit the generation of melanin at a cellular level"}, {"measurement": "effects of β-D-glucoside derivatives on a melanin content", "setting": "Human melanocytes; final concentration 100 μM, human melanocytes and tool melanocytes (not separated in text), FIG. 1", "value": "shows the optimal effect"}, {"measurement": "inhibitory activity on in vitro simulated melanin generation compared with whitening positive drugs", "setting": "Human melanocytes; human melanocytes, FIG. 6", "value": "significantly better than that of the positive drugs VC, kojic acid, and hydroquinone"}, {"measurement": "concentration showing an ideal effect on melanin generation", "setting": "Human melanocytes; tested at 12.5-200 μM, human melanocytes and tool melanocytes, FIG. 5", "value": 50, "unit": "µM"}, {"measurement": "inhibitory activity on melanin generation compared with whitening positive drugs", "setting": "tool melanocytes", "value": "significantly better than that of VC and kojic acid, but slightly inferior to that of hydroquinone"}, {"measurement": "white spots, skin irritation injuries or poisoning symptoms", "setting": "Kunming mice; 2.5%, 5%, 10% (mass to volume) in NS applied daily on dorsal skin", "value": "none of the mice has white spots, redness and swelling, and other skin irritation injuries, or poisoning symptoms"}, {"measurement": "changes in the body weight and skin condition", "setting": "Kunming mice; 2.5%, 5%, 10% (mass to volume) in NS applied daily on dorsal skin, FIG. 7 and FIG. 8", "value": "in line with the growth pattern of normal mice"}, {"measurement": "white spots, skin irritation and toxicity (conclusion of long-term toxicity test)", "setting": "Kunming mice; at a dosage of 10% (mass to volume ratio)", "value": "will not cause white spots, skin irritation, and toxicity"}, {"measurement": "irritating pain, itching felt by volunteers during patch test", "setting": "[1]", "value": "no irritating pain, itching, or the like"}, {"measurement": "sensitization to the skin (patch test)", "setting": "[1]; FIG. 9", "value": "has no sensitization to the skin"}, {"measurement": "effect on melanin content in skin (skin melanin pigmentation)", "setting": "[2]; gel applied daily for 4 weeks, day 0, 14, 28, FIG. 10", "value": "can significantly improve the skin melanin pigmentation"}, {"measurement": "effect on skin brightness", "setting": "[2]; gel applied daily for 4 weeks, day 0, 14, 28, FIG. 11", "value": "improve the skin brightness"}, {"measurement": "whitening effect compared with VC, kojic acid, thiamidol, hydroquinone and 377", "setting": "[2]; gels applied daily for 4 weeks, FIG. 10 and FIG. 11", "value": "significantly better than that of raw materials VC, kojic acid, thiamidol, and hydroquinone currently on the market, but slightly inferior to that of 377"}]}]}
